Among the data in patent US11525165B2, “Method of selection of an IRE1-inhibitor therapy for patient suffering from cancer” (INSERM (INSTITUT NATIONAL DE LA SANTÉ ET DE LA RECHERCHE …, priority 2017, dated 2022) are miR-17 degradation values, retold here.

This assay concerns U87 cells. The experiment in a line: miR-17 level under tunicamycin-induced ER stress. Type of assay: cell-based. To be noted: data not shown. As for the experimental part:
U87MG (ATCC) and U251MG (Sigma, St Louis, Mo., USA) cells were authenticated as recommended by AACR (http://aacrjournals.org/content/cell-line-authentication-information) and tested for the absence of mycoplasma using MycoAlert® (Lonza, Basel, Switzerland) or MycoFluor (Invitrogen, Carlsbad, Calif., USA). U87 cells (ATCC) were grown in DMEM glutamax (Invitrogen, Carlsbad, Calif., USA) supplemented with 10% FBS. U87 were stably transfected at MOI=0.3 with pCDH-CMV-MCS-EF1-Puro-copGFP (System biosciences) empty vector (EV), pCDH-CMV-MCS-EF1-Puro-copGFP containing IRE1alpha wild-type sequence (WT) or mutated sequence (P336L, A414T, S769F or Q780*). U87 cells were selected using 2 μg/mL puromycin and polyclonal populations were tested for GFP expression. Transfections of GBM primary cell lines with IRE1 WT and Q780* were performed using Lipofectamine LTX (ThermoFisher Scientific), according to the manufacturer's instructions. For microarray experiments, tunicamycin (purchased from Calbiochem (Merck KGaA, Darmstadt, Germany)) was used at […] for 16 hrs. Actinomycin D were purchased from Sigma-Aldrich (St Louis, Mo., USA) and used as indicated. […]
Total RNA was prepared using the Trizol reagent (Invitrogen, Carlsbad, Calif., USA). Semi-quantitative analyses were carried out as previously described. […]

Turning to tunicamycin, the miR-17 degradation entry was “led to further miR-17 degradation”.
